In test [1] the target is 5-hydroxytryptamine receptor 2A (Mus musculus) (UniProt P35363). As to the kind of experiment: Agonist activity at mouse 5-HT2A receptor expressed in Flp-In T-REx 293 cells assessed as induction of Gq-mediated calcium flux incubated for 1 hr by Flou4-AM dye based FLIPR assay relative to serotonin. In kind it is functional, cell-based. (Calcium assays in cells follow changes in intracellular calcium, usually with a dye or a luminescent sensor.)

The target of test [2] is 5-hydroxytryptamine receptor 2A (Homo sapiens) (UniProt P28223). As to the kind of experiment: Agonist activity at human 5-HT2A receptor expressed in Flp-In T-REx 293 cells assessed as induction of Gq-mediated calcium flux incubated for 1 hr by Flou4-AM dye based FLIPR assay relative to serotonin. In kind it is functional, cell-based.
Test [3] has as its target 5-hydroxytryptamine receptor 2A (Mus musculus, UniProt P35363). As to the kind of experiment: Agonist activity at mouse 5-HT2A receptor expressed in Flp-In T-REx 293 cells assessed as induction of Gq-mediated calcium flux incubated for 1 hr by Flou4-AM dye based FLIPR assay. It counts as functional, cell-based.
The test system of test [4] is Mus musculus. As to the kind of experiment: Induction of head-twitch response in C57BL/6J mouse at 0.03 to 3 mg/kg, ip measured for 20 mins. It counts as functional, organism-based.
The test system of test [5] is Mus musculus. As to the kind of experiment: Induction of head-twitch response in ip dosed C57BL/6J mouse measured for 20 mins. It counts as functional.

The values that follow come from ChEMBL document CHEMBL4602692, “Synthesis and Biological Evaluation of Tryptamines Found in Hallucinogenic Mushrooms: Norbaeocystin, Baeocystin, Norpsilocin, and Aeruginascin” (J Nat Prod, 2020).

pEC50: −log10 of the molar value. Active and inactive are the calls of the source. The calls are words filed in the database; no cut-off is given here.

Sequence of 5-hydroxytryptamine receptor 2A (Homo sapiens) (P28223 whole entry): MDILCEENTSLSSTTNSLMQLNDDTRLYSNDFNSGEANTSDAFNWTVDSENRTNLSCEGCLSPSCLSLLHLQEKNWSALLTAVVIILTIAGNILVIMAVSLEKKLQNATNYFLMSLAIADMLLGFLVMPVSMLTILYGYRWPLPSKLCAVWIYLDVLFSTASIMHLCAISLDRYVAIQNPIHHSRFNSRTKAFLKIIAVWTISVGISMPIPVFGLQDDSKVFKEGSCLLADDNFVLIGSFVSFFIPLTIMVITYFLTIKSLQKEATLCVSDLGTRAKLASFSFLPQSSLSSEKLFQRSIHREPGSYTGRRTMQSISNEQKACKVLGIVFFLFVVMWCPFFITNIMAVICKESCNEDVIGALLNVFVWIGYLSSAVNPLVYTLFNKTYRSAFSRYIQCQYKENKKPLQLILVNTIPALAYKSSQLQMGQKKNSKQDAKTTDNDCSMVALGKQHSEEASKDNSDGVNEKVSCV
Sequence of 5-hydroxytryptamine receptor 2A (P35363 whole entry): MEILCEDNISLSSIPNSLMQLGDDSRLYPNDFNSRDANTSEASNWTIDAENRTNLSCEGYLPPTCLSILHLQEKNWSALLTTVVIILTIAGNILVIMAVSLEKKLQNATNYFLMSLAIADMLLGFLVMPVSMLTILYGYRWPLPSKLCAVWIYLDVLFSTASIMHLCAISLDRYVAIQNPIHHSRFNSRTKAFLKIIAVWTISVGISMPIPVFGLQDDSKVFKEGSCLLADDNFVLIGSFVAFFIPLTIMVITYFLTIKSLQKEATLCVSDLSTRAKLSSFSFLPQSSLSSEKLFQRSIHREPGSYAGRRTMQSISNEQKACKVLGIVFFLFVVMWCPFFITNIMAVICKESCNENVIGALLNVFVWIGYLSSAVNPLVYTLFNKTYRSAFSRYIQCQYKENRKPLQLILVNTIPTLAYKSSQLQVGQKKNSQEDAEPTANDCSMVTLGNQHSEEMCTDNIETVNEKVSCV
Sequence of 5-hydroxytryptamine receptor 2A (Mus musculus) (P35363 whole entry): as above

Consider `CN(C)CCc1c[nH]c2cccc(O)c12` [PSILOCIN], for which the maximal response (Emax) (in general, the greatest response seen or fitted, relative to the assay's reference) amounted to 72% in test [1] and 73% in test [2]. In addition, the pEC50 (as a rule, the EC50 on a negative log10 scale, so that one unit is a factor of ten) in test [3] was 8.00.
On to `CNCCc1c[nH]c2cccc(OP(=O)(O)O)c12`, for which the result in test [4] was inactive.
Consider `CN(C)CCc1c[nH]c2cccc(OP(=O)(O)O)c12` [PSILOCYBIN], for which, in test [5], the Activity result is “Dose-dependent effect” and the ED50 (commonly the dose that gives a 50% effect, or the effect in half of the subjects) was found to be 0.4 mg/kg.
Regarding `CNCCc1c[nH]c2cccc(O)c12`, the Emax came out at 99% in test [1] and 93% in test [2]. In addition, in test [3], the negative logarithm of the EC50 (pEC50) is 7.72.
